Results taken from publication PMC10891265 (2024).

System: ATP aptamer (Apt-POSS) (DNA, aptamer) CCACCACGGTGGTGGTGGTTGTGGTGC
Assay: UV absorption at 260 nm after centrifugation, Langmuir fit
Conditions: PBS, 30 min

K (0.1 mg particle/mL, aptamer on nanoparticles, apparent) | binding (control nucleotide, captured less than ATP, ATP series 1 μM to 2 mM) | Compound
46.5 ± 18.5 µM | – | Nc1ncnc2c1ncn2[C@@H]1O[C@H](COP(=O)(O)OP(=O)(O)OP(=O)(O)O)[C@@H](O)[C@H]1O
– | weak | Nc1ccn([C@@H]2O[C@H](COP(=O)(O)OP(=O)(O)OP(=O)(O)O)[C@@H](O)[C@H]2O)c(=O)n1
